Our source for the Relaxivity values is patent publication US20170368207A1, “SELF-ASSEMBLED NANOSTRUCTURE AND METHOD FOR PREPARING THE SAME” (National Chiao Tung University, priority 2016, published 2017).

The structures appear in SMILES notation.

The data set can be described thus: Relaxivity of contrast agents (Table 4). Type of data set: physicochemical. An excerpt:
Relaxivities of a self-assembled nanostructure of the invention, gadodiamide, and carboxymethyl hexanoyl chitosan that physically encapsulates gadodiamide are as shown in Table 4. Hereinafter, the symbol “CHC+Gd” represents that there is only physical mixing between gadodiamide and carboxymethyl hexanoyl chitosan, while the symbol “CHC−Gd” represents that chemical bonding exists between gadodiamide and carboxymethyl hexanoyl chitosan (i.e., the self-assembled nanostructure of the invention).
As a molecule grafted to a paramagnetic metal of a contrast agent is larger, a rotation time between the paramagnetic metal and a solvent molecule becomes longer, so that the relaxivity of the contrast agent is enhanced. The higher the relaxivity of the contrast agent, the better the contrast effect, i.e., the more excellent the contrasting ability. In the self-assembled nanostructure of the invention, gadolinium (paramagnetic metal) has an amphiphilic chitosan (polymer) grafted thereto, and thus has a higher relaxivity than the relaxivities of the single gadodiamide and CHC+Gd. […] In other words, the contrast agent compound of the invention, after being grafted to the amphiphilic chitosan, produces a synergistic effect on the contrasting ability of the contrast agent compound.

For the compound `CNC(=O)CN(CCN(CCN(CC(=O)[O-])CC(=O)NC)CC(=O)[O-])CC(=O)[O-].[Gd+3]` [Gadodiamide, gadodiamide], the Relaxivity was 1.8158 mM⁻¹ s⁻¹.
